One assay has as its target T1, KRAS (WT) and SOS1 (Homo sapiens, UniProt P01116, C118S).
T1 construct: KRAS (WT) 1-169, N-terminal 6His-tag for purification; 6His (N, cleaved yes); TEV cleavage site
As to the kind of experiment: KRAS::SOS1 AlphaScreen binding assay, KRAS WT. How it is done: Low IC50 values in this assay setting are indicative of strong inhibition of protein-protein interaction between SOS1 and KRAS:
These assays measure the inhibitory effect of compounds on KRAS mutant protein-protein interactions using the Alpha Screen technology by Perkin Elmer.
For the chosen highest assay concentration of 100 μM, 150 nL of compound solution are transferred from a 10 mM DMSO compound stock solution. A series of eleven fivefold dilutions per compound are transferred to the assay plate, compound dilutions are tested in duplicates. DMSO are added as backfill to a total volume of 150 nL.
The assays run on a fully automated robotic system in a darkened room below 100 Lux. To 150 nl of compound dilution 10 μl of a mix including KRAS mutant protein, SOS1 (final assay concentrations see above) and GDP nucleotide (Sigma G7127; final assay concentration 10 μM) in assay buffer (1×PBS, 0.1% BSA, 0.05% Tween 20) are added into columns 1-24. […]
Plates are kept at room temperature in a darkened incubator. After an additional 60 minutes incubation time the signal is measured in a PerkinElmer Envision HTS Multilabel Reader using the AlphaScreen specs from PerkinElmer.
IC50 values are calculated and analyzed with Boehringer Ingelheim's MEGALAB IC50 application using a 4 parametric logistic model.

For a further assay, the system named is GP2D cells. The experiment in a line: GP2D proliferation assay (120 h). The format is cell-based. The following applies: colorectal cancer, G12D. How it is done: GP2D cells (ATCC No. CRL-5807) are dispensed into white 384-well plates, flat and white bottom(Perkin Elmer, 6007680) at a density of 500 cells per well in 40 μl DMEM (Sigma, D6429)+1×GlutaMAX (Gibco, 35050038)+10% FCS (fetal calf serum). […] Compounds (10 mM stock in DMSO) are added at logarithmic dose series using the HP Digital Dispenser D300 (Tecan), including DMSO controls and normalizing for added DMSO. For the T0 time point measurement, untreated cells are analyzed at the time of compound addition. Plates are incubated for 120 h, and cell viability is measured using CellTiter-Glo luminescent cell viability reagent (Promega product code G7570). Viability (stated as percent of control) is defined as relative luminescence units RLU of each well divided by the RLU of cells in DMSO controls. IC50 values are determined from viability measurements by non-linear regression using a four-parameter model.

T1 sequence (P01116 1-169 isoform P01116-2 C118S): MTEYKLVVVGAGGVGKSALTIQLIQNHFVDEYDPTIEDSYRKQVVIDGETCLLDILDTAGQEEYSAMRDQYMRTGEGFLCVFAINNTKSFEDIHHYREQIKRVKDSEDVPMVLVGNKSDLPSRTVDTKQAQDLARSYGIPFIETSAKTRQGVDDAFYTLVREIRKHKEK

For the molecule `C[C@H]1CN(C)CCN1c1cccc(-c2noc([C@@]3(C)CCCc4sc(N)c(C#N)c43)n2)n1` [Example V-1], at KRAS (WT) and SOS1, the IC50 came out at 125 nM.
`C[C@H](Oc1cccc(-c2noc([C@@]3(C)CCCc4sc(N)c(C#N)c43)n2)n1)[C@@H]1CCCN1C` [Example V-8] showed an IC50 on KRAS (WT) and SOS1 of 28 nM.
As for `C[C@H](Oc1ccnc(-c2noc([C@@]3(C)CCCc4sc(N)c(C#N)c43)n2)n1)[C@@H]1CCCN1C` [Example V-11], the IC50 in the assay on GP2D cells was 152 nM.

These data come from patent US20250313553A1, “ANNULATED 2-AMINO-3-CYANO THIOPHENES AND DERIVATIVES FOR THE TREATMENT OF CANCER” (Boehringer Ingelheim Int'l GmbH Corp., priority 2021, published 2025).
